Patent publication US20220142913A1, “TRANSDERMAL DELIVERY FORMULATIONS” (Albert Einstein College of Medicine, priority 2020, published 2022)
Blank lines part the entries; values can stand above or below the molecule they belong to.

Experiment: Loading potential / solubility of low solubility agents in PEG400/myristic acid vehicles, nitrite saturated PEG400 and water
Type: physicochemical
Details: for dissolution in Sample 3 solvent system: Sample 3: 30 ml PEG400 + 0.75 grams MA; for dissolved material in aqueous solution: aqueous sample
Experimental: Vehicles for loading the active ingredient were prepared as illustrated in samples 1-4. Myristic acid (solid flakes) was dissolved in PEG400 upon warming the mixture in a warm water bath. Shaking accelerated the formation of the resulting clear solution. The following four concentrations of myristic acid (MA) in PEG400 were prepared and evaluated. Samples 1, 2, 3 and 4 were all clear solutions when the samples were allowed to attain ambient temperatures.
The samples as vehicles were loaded with NO enhancing agent. […] Samples 1 and 2 were initially liquid but formed a solid uniform gel over a period of several hours. Sample 3 was prepared by dissolving 0.75 grams of MA in 30 ml's of PEG400 and heating in a water bath (˜60-80 C) for ˜15 minutes. Sample 4 was prepared by dissolving 2.25 grams of MA in 30 mls of PEG400 and heating in a water bath (˜60-80 C) for ˜15 minutes. Both sample 3 and sample 4 were uniform solutions when the heating cycle was finished. Upon cooling sample 3 remained liquid whereas sample 4 formed a uniform gel. […]
The Sample 3 solvent system was also tested as a vehicle for loading potential with the following low solubility reagents using the above method: quercetin, berberine, N-acetyl cysteine amide (NACA) and N-acetyl cysteine ethyl ester (NAC-ethylester).
The solutions of the two lipophilic NAC derivatives were prepared using sodium nitrite saturated PEG400, resulting in a clear solution. […] NAC is water soluble and the two derivatives are marginally soluble in water. The two solutions were then treated with several drops of acetic acid to trigger the formation of nitrous acid from the nitrite which can then nitrosate the reactive thiol on both of the NAC derivatives. The solutions turned pink indicative of S-nitrosothiol formation. The solutions remained pink for several days. The corresponding aqueous solutions lost color within hours. The use of nitrite saturated PEG400 allows for formulations that can be used to generate NO and S-nitrosothiols through mixing with reagents that acidify the mixture. A double frangible pouch incorporated into a patch may be used for a sustained NO delivery vehicle suitable for topical and transdermal applications.

dissolution in Sample 3 solvent system: substantial dissolution
Molecule: CCOC(=O)[C@H](CS)NC(C)=O [NAC-ethylester, N-acetyl cysteine ethyl ester]

dissolution in water (colour of liquid phase) (same amount of curcumin in same volume of water (3 g in 30 ml)): almost no color in the liquid phase
Molecule: COc1cc(/C=C/C(=O)CC(=O)/C=C/c2ccc(O)c(OC)c2)ccc1O [curcumin]

dissolution in Sample 3 solvent system: substantial dissolution
Molecule: N-acetyl cysteine amide [NACA]

dissolving of the added curcumin (1.5 grams Curcumin 95 in Samples 1, 2, 3 (30 ml PEG400 + myristic acid), warmed, cooled to ambient): almost all of the added curcumin
Molecule: COc1cc(/C=C/C(=O)CC(=O)/C=C/c2ccc(O)c(OC)c2)ccc1O [Curcumin 95, curcumin]

solubility of quercetin: 200-300 mg in 30 ml
solubilization in Sample 3: high degree of solubilization
dissolution in Sample 3 solvent system: substantial dissolution
dissolved material in aqueous solution: minimal dissolved material
Molecule: O=c1c(O)c(-c2ccc(O)c(O)c2)oc2cc(O)cc(O)c12 [quercetin]

dissolution in Sample 3 solvent system: substantial dissolution
dissolved material in aqueous solution: minimal dissolved material
Molecule: COc1ccc2cc3[n+](cc2c1OC)CCc1cc2c(cc1-3)OCO2 [berberine]

solubility in sodium nitrite saturated PEG400: limited solubility
solubility in water: water soluble
Molecule: CC(=O)N[C@@H](CS)C(=O)O [NAC, N-acetyl cysteine]
